Molecules are shown by their SMILES.

Sequence of 5-hydroxytryptamine receptor 6 (P50406 whole entry): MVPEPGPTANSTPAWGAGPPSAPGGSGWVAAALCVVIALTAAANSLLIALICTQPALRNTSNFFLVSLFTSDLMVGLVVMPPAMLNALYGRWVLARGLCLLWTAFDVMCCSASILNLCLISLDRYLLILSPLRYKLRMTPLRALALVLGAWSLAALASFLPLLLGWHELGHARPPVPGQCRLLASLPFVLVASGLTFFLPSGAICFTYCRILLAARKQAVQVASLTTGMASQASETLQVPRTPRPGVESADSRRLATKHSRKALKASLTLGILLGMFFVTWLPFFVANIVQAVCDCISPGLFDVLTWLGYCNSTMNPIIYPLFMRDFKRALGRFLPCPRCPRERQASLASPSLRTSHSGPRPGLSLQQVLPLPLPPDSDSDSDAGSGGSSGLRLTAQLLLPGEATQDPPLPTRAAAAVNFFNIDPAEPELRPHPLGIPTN
Sequence of Kappa-type opioid receptor (P41145 whole entry): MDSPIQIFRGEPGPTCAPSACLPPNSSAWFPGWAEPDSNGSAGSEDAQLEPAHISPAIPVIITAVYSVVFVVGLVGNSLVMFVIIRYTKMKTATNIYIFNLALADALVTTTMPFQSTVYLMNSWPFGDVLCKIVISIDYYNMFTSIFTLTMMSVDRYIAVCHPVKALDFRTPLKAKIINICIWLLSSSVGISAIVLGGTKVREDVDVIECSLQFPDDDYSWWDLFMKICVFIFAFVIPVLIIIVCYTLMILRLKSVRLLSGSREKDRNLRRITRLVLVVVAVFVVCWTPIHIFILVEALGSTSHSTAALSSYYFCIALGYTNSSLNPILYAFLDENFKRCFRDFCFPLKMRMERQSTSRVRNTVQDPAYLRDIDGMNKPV
Sequence of Beta-1 adrenergic receptor (P08588 whole entry): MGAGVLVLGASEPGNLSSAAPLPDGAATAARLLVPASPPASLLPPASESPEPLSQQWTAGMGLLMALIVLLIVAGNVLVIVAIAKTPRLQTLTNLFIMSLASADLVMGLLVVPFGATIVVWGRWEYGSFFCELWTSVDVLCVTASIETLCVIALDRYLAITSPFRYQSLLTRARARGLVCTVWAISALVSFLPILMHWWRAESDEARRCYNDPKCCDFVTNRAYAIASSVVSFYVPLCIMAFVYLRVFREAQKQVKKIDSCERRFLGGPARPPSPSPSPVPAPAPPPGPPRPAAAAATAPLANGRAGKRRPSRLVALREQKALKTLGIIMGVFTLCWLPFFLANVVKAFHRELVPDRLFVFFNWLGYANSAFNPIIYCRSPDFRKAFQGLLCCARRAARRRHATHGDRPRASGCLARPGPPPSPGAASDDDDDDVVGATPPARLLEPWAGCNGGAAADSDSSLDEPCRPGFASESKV

Test system in the first assay: not listed separately
In words: DRUGMATRIX: Calcium Channel Type L, Phenylalkylamine radioligand binding (ligand: [3H] (-)-Desmethoxyverapamil (D-888)). In kind it is cell membranes, Rattus norvegicus, Wistar, Brain, Membrane. Conditions: Not Active = under 50% inhibition at 10 µM.
`CC(=O)[C@H]1CC[C@H]2[C@@H]3CCC4=CC(=O)CC[C@]4(C)[C@H]3CC[C@]12C` [PROGESTERONE]: the IC50 entry is given as “Not Active” and the Ki result is on record as “Not Active”.

Another assay concerns the target T1, Endothelin-1 receptor (Homo sapiens, UniProt P25101). Also: in other assays of this panel Not Active means under 50% inhibition at 10 µM.
T1 sequence (P25101 whole entry): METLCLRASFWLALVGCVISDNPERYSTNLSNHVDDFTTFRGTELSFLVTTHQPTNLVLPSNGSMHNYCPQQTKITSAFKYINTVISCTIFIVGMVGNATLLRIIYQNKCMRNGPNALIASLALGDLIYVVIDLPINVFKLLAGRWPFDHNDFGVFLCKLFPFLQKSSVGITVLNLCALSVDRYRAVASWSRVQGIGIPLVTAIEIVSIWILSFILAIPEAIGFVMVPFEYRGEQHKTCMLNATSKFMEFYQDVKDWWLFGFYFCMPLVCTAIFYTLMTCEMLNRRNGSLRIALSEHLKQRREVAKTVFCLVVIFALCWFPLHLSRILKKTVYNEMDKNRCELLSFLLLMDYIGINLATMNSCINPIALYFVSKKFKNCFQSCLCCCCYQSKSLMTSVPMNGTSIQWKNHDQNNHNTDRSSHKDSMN
Type of assay: cell membranes, Membrane. As to conditions: cho-k1.
On to `CC(=O)[C@H]1CC[C@H]2[C@@H]3CCC4=CC(=O)CC[C@]4(C)[C@H]3CC[C@]12C` [PROGESTERONE], for which the IC50 result is listed as “Not Active”.

The next assay concerns the target 5-hydroxytryptamine receptor 6 (Homo sapiens, UniProt P50406). In kind it is cell membranes, HeLa, Membrane. Conditions: hela. Also: in other assays of this panel Not Active means under 50% inhibition at 10 µM.
Take `CC(=O)[C@H]1CC[C@H]2[C@@H]3CCC4=CC(=O)CC[C@]4(C)[C@H]3CC[C@]12C` [PROGESTERONE]: the IC50 result was “Not Active”.

Test system in the next assay: not listed separately
The experiment in a line: DRUGMATRIX: Nicotinic Acetylcholine radioligand binding (ligand: [125I] Epibatidine). Type of assay: cell membranes, Membrane. Conditions: imr-32; Not Active = under 50% inhibition at 10 µM.
Turning to `CC(=O)[C@H]1CC[C@H]2[C@@H]3CCC4=CC(=O)CC[C@]4(C)[C@H]3CC[C@]12C` [PROGESTERONE], the IC50 entry is recorded as “Not Active” and the Ki entry is “Not Active”.

Test system in a further assay: not listed separately
The experiment in a line: DRUGMATRIX: ATPase, Na+/K+ enzyme inhibition (substrate: ATP). In kind it is tissue-based, Sus scrofa, Heart. As to conditions: Not Active = under 50% inhibition at 10 µM.
For `CC(=O)[C@H]1CC[C@H]2[C@@H]3CCC4=CC(=O)CC[C@]4(C)[C@H]3CC[C@]12C` [PROGESTERONE], the IC50 entry is given as “Not Active” and the Ki result was “Not Active”.

The next assay has as its target T2, 5-hydroxytryptamine receptor 2C (Homo sapiens, UniProt P28335).
T2 sequence (P28335 whole entry): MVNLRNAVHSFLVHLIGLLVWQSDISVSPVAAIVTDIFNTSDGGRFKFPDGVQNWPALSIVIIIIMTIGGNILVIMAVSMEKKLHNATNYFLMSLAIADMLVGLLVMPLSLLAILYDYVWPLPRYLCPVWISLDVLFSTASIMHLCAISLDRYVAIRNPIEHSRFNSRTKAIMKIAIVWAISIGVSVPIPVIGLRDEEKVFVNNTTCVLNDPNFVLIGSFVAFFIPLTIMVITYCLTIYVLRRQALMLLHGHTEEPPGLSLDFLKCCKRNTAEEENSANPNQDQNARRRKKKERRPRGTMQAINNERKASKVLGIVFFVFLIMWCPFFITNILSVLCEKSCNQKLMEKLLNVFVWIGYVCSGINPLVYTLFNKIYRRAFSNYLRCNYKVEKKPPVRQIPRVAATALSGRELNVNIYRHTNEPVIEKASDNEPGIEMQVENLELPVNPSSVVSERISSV
The experiment in a line: DRUGMATRIX: Serotonin (5-Hydroxytryptamine) 5-HT2C radioligand binding (ligand: [3H] Mesulergine). Type of assay: cell membranes, CHO-K1, Membrane. As to conditions: cho-k1; Not Active = under 50% inhibition at 10 µM.
As for `CC(=O)[C@H]1CC[C@H]2[C@@H]3CCC4=CC(=O)CC[C@]4(C)[C@H]3CC[C@]12C` [PROGESTERONE], the IC50 entry was “Not Active”.

Test system in a further assay: not listed separately
In words: DRUGMATRIX: Glutamate, Kainate radioligand binding (ligand: [3H] Kainic acid). In kind it is cell membranes, Rattus norvegicus, Wistar, Brain, Membrane. As to conditions: Not Active = under 50% inhibition at 10 µM.
`CC(=O)[C@H]1CC[C@H]2[C@@H]3CCC4=CC(=O)CC[C@]4(C)[C@H]3CC[C@]12C` [PROGESTERONE]: the IC50 result is reported as “Not Active” and the Ki entry is “Not Active”.

Test system in a further assay: not listed separately
In words: DRUGMATRIX: Calcium Channel Type L, Benzothiazepine radioligand binding (ligand: [3H] Diltiazem). Conditions: Not Active = under 50% inhibition at 10 µM. In kind it is cell membranes, Rattus norvegicus, Wistar, Brain, Membrane.
Turning to `CC(=O)[C@H]1CC[C@H]2[C@@H]3CCC4=CC(=O)CC[C@]4(C)[C@H]3CC[C@]12C` [PROGESTERONE], the IC50 result is “Not Active” and the Ki entry is recorded as “Not Active”.

The target in a further assay is Mu-type opioid receptor (Homo sapiens, UniProt P35372). The experiment in a line: DRUGMATRIX: Opiate mu (OP3, MOP) radioligand binding (ligand: [3H] Diprenorphine). Conditions: cho-k1; Not Active = under 50% inhibition at 10 µM. In kind it is cell membranes, CHO-K1, Membrane.
Sequence of Mu-type opioid receptor (P35372 whole entry): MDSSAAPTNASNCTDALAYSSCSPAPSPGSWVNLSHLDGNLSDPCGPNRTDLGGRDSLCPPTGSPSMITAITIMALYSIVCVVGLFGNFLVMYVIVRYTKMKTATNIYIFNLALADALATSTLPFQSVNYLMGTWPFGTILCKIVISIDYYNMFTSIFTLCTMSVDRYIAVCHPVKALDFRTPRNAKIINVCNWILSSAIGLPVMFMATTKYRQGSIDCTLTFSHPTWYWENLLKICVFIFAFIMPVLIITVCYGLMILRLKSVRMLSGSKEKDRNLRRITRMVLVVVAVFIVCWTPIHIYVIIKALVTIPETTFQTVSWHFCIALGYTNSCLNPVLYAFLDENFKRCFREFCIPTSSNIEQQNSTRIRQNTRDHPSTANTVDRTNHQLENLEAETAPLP
For the compound `CC(=O)[C@H]1CC[C@H]2[C@@H]3CCC4=CC(=O)CC[C@]4(C)[C@H]3CC[C@]12C` [PROGESTERONE], the IC50 result was “Not Active”.

Test system in the next assay: not listed separately
The experiment in a line: DRUGMATRIX: Serotonin (5-Hydroxytryptamine) 5-HT3 radioligand binding (ligand: [3H] GR-65630). In kind it is cell membranes, Membrane. Conditions: hek293; Not Active = under 50% inhibition at 10 µM.
On to `CC(=O)[C@H]1CC[C@H]2[C@@H]3CCC4=CC(=O)CC[C@]4(C)[C@H]3CC[C@]12C` [PROGESTERONE], for which the IC50 result was “Not Active” and the Ki entry is “Not Active”.

The target in another assay is Melanocortin receptor 4 (Homo sapiens, UniProt P32245). Type of assay: cell membranes, Membrane. Conditions: hek293. Also: in other assays of this panel Not Active means under 50% inhibition at 10 µM.
Sequence of Melanocortin receptor 4 (P32245 whole entry): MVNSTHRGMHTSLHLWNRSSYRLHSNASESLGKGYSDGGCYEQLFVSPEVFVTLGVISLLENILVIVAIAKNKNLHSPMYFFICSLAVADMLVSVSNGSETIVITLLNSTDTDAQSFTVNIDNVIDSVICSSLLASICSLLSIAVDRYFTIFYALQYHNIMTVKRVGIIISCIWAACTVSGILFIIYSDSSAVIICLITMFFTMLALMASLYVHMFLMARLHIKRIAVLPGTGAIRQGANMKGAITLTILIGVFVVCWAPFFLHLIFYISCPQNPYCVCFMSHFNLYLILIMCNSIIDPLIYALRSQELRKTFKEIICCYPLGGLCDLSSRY
As to `CC(=O)[C@H]1CC[C@H]2[C@@H]3CCC4=CC(=O)CC[C@]4(C)[C@H]3CC[C@]12C` [PROGESTERONE], the IC50 entry was “Not Active”.

Test system in a further assay: not listed separately
In words: DRUGMATRIX: GABAA, Muscimol, Central radioligand binding (ligand: [3H] Muscimol). In kind it is cell membranes, Rattus norvegicus, Wistar, Brain, Membrane. Conditions: Not Active = under 50% inhibition at 10 µM.
With `CC(=O)[C@H]1CC[C@H]2[C@@H]3CCC4=CC(=O)CC[C@]4(C)[C@H]3CC[C@]12C` [PROGESTERONE], the IC50 result is recorded as “Not Active” and the Ki result is on record as “Not Active”.

For a further assay, the target named is T3, Alpha-1B adrenergic receptor (Rattus norvegicus, UniProt P15823).
T3 sequence (P15823 whole entry): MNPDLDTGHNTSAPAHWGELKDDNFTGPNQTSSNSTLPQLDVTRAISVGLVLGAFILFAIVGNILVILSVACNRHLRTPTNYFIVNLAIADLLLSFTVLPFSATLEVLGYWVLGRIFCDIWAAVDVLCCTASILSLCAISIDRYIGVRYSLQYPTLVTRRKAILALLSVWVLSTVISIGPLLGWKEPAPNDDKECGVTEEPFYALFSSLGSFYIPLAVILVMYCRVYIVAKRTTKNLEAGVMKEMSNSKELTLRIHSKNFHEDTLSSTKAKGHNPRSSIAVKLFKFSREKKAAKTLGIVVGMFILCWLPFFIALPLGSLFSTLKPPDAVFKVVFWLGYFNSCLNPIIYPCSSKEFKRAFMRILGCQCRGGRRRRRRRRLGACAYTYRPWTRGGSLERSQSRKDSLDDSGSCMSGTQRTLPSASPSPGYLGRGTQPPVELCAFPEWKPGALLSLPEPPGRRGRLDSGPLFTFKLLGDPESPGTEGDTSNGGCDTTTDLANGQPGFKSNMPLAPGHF
In words: DRUGMATRIX: Alpha-1B adrenergic receptor radioligand binding (ligand: prazosin). Conditions: Not Active = under 50% inhibition at 10 µM. In kind it is cell membranes, Wistar, Liver, Membrane.
With `CC(=O)[C@H]1CC[C@H]2[C@@H]3CCC4=CC(=O)CC[C@]4(C)[C@H]3CC[C@]12C` [PROGESTERONE], the IC50 entry is listed as “Not Active”.

The next assay has as its target Kappa-type opioid receptor (Homo sapiens, UniProt P41145). In words: DRUGMATRIX: Opiate kappa (OP2, KOP) radioligand binding (ligand: [3H] Diprenorphine). Conditions: hek293; Not Active = under 50% inhibition at 10 µM. In kind it is cell membranes, HEK293, Membrane.
On to `CC(=O)[C@H]1CC[C@H]2[C@@H]3CCC4=CC(=O)CC[C@]4(C)[C@H]3CC[C@]12C` [PROGESTERONE], for which the IC50 entry was “Not Active”.

Another assay has as its target Beta-1 adrenergic receptor (Homo sapiens, UniProt P08588). The experiment in a line: DRUGMATRIX: Adrenergic beta1 radioligand binding (ligand: [125I] Cyanopindolol). Type of assay: cell membranes, CHO-K1, Membrane. Conditions: cho-k1; Not Active = under 50% inhibition at 10 µM.
Turning to `CC(=O)[C@H]1CC[C@H]2[C@@H]3CCC4=CC(=O)CC[C@]4(C)[C@H]3CC[C@]12C` [PROGESTERONE], the IC50 result is “Not Active”.

The next assay has as its target T4, Neuropeptide Y receptor type 2 (Homo sapiens, UniProt P49146). Also: in other assays of this panel Not Active means under 50% inhibition at 10 µM.
T4 sequence (P49146 whole entry): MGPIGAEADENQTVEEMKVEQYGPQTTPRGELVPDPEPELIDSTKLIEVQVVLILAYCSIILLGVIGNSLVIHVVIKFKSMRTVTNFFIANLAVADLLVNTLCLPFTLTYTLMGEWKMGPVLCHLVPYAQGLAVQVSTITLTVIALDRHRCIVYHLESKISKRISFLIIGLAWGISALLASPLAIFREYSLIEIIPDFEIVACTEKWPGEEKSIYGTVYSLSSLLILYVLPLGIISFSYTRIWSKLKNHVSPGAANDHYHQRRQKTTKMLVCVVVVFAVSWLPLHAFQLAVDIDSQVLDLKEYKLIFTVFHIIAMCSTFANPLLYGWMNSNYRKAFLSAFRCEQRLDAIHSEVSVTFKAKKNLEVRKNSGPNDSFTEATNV
In kind it is cell membranes, Membrane. Conditions: kan-ts.
Turning to `CC(=O)[C@H]1CC[C@H]2[C@@H]3CCC4=CC(=O)CC[C@]4(C)[C@H]3CC[C@]12C` [PROGESTERONE], the IC50 result is given as “Not Active”.
